Active and inactive are the calls of the source. The calls are words filed in the database; no cut-off is given here.
Columns and labels:
[1] = Stability in rat plasma assessed as residual of initial concentration at 1 hr; type: ADME, cell-free; conditions: read-out: Stability
[2] = biological target: T1, Stimulator of interferon genes protein (Mus musculus) (UniProt Q3TBT3); assay: Activation of STING in mouse RAW264.7 cells assessed as increase in IL-6 expression at 10 to 100 uM incubated for 24 hrs by qRT-PCR analysis; type: cell-based; conditions: dose 10-100 µM
T1 sequence (whole entry): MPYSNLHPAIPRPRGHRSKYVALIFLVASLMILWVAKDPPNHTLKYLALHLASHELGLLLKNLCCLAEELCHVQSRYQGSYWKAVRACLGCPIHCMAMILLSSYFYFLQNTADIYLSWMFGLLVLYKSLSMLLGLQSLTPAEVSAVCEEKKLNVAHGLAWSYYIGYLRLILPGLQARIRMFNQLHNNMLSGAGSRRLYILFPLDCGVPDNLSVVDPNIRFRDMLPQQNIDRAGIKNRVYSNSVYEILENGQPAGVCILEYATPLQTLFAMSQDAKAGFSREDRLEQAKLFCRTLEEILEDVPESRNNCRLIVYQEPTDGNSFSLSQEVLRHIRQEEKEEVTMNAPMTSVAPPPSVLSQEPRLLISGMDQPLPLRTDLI

[3] = biological target: T1, Stimulator of interferon genes protein (Mus musculus); assay: Activation of STING in mouse RAW264.7 cells assessed as increase in TBK1 phosphorylation at 10 to 100 uM incubated for 4 hrs by Western blot analysis; type: cell-based; conditions: dose 10-100 µM
[4] = biological target: T2, Stimulator of interferon genes protein (Homo sapiens, UniProt Q86WV6); assay: Activation of STING signaling pathway in human PBMC cells assessed as increase in IL-6 mRNA level at 0.1 to 1 uM measured after 4 hrs by qRT-PCR analysis; type: cell-based; conditions: filed as agonist, dose 0.1-1 µM
[5] = biological target: T2, Stimulator of interferon genes protein; assay: Activation of STING signalling pathway in human THP1-Dual cells assessed as increase in NF-kappaB-SEAP activation incubated for 24 hrs by QUANTI-Blue reagent based assay; type: cell-based
[6] = biological target: T2, Stimulator of interferon genes protein; assay: Activation of STING signalling pathway in human THP-1 cells assessed as increase in TNF-alpha level incubated for 4 hrs by ELISA method; type: cell-based; conditions: filed as agonist, dose 3.7-33.3 pg/ml
[7] = biological target: T2, Stimulator of interferon genes protein; assay: Activation of STING signaling pathway in human wild type THP-1 cells assessed as increase in IFN-beta mRNA level at 50 uM measured after 4 hrs by qRT-PCR analysis; type: cell-based; conditions: filed as agonist
[8] = biological target: T2, Stimulator of interferon genes protein; assay: Activation of STING signaling pathway in human wild type THP-1 cells assessed as increase in IL-6 mRNA level at 50 uM measured after 4 hrs by qRT-PCR analysis; type: cell-based; conditions: filed as agonist
[9] = biological target: T2, Stimulator of interferon genes protein; assay: Agonist activity at STING in human THP1-Dual cells incubated for 20 hrs by Quanti-luc reagent based assay; type: cell-based
[10] = biological target: T2, Stimulator of interferon genes protein; assay: Activation of STING signalling pathway in human wild type THP-1 cells assessed as increase in TBK1 phosphorylation at 10 uM measured after 1 hr by Western blot analysis; type: cell-based; conditions: filed as agonist
[11] = biological target: T2, Stimulator of interferon genes protein; assay: Activation of STING signalling pathway in human THP-1 cells assessed as increase in IL-6 level incubated for 4 hrs by ELISA method; type: cell-based; conditions: filed as agonist, dose 3.7-33.3 pg/ml
[12] = biological target: T2, Stimulator of interferon genes protein; assay: Activation of STING signalling pathway in human THP1-Dual cells assessed as increase in IRF-luciferase activation incubated for 24 hrs by QUANTI-luc assay; type: cell-based
[13] = Metabolic stability in Sprague-Dawley rat plasma assessed as compound remaining measured after 1 hr by LC-MS/MS analysis; type: ADME, cell-free; conditions: read-out: Stability
THP1-Dual = assay: Cytotoxicity against human THP1-Dual habouring STING assessed as inhibition of cell growth by MTS assay; type: functional, cell-based
[14] = biological target: T2, Stimulator of interferon genes protein; assay: Activation of STING signalling pathway in human wild type THP-1 cells assessed as increase in STING phosphorylation at 10 uM measured after 1 hr by Western blot analysis; type: cell-based; conditions: filed as agonist
[15] = biological target: T2, Stimulator of interferon genes protein; assay: Activation of STING signalling pathway in human wild type THP-1 cells assessed as increase in IFN-beta secretion incubated for 4 hrs by ELISA method; type: cell-based
[16] = Metabolic stability in Sprague-Dawley rat plasma assessed as compound remaining measured after 2 hrs by LC-MS/MS analysis; type: ADME, cell-free; conditions: read-out: Stability
[17] = biological target: T2, Stimulator of interferon genes protein; assay: Activation of STING signalling pathway in human PBMC cells assessed as increase in CXCL10 level incubated for 4 hrs by ELISA method; type: cell-based
[18] = biological target: T2, Stimulator of interferon genes protein; assay: Activation of STING signalling pathway in human THP-1 cells assessed as increase in CXCL10 level incubated for 4 hrs by ELISA method; type: cell-based; conditions: filed as agonist, dose 0.046-0.421 pg/ml
[19] = biological target: T2, Stimulator of interferon genes protein; assay: Agonist activity at STING in human […] KO-STING cells incubated for 20 hrs by Quanti-luc reagent based assay; type: cell-based, THP1-Dual KO-STING
[20] = Cytotoxicity against human THP1-Dual KO-STING cells assessed as inhibition of cell growth by MTS assay; type: functional, cell-based
[21] = biological target: T1, Stimulator of interferon genes protein (Mus musculus); assay: Activation of STING in mouse RAW264.7 cells assessed as increase in CXCL10 expression at 10 to 100 uM incubated for 24 hrs by qRT-PCR analysis; type: cell-based; conditions: dose 10-100 µM
[22] = biological target: T2, Stimulator of interferon genes protein; assay: Activation of STING signaling pathway in human wild type THP-1 cells assessed as increase in CXCL10 mRNA level at 50 uM measured after 4 hrs by qRT-PCR analysis; type: cell-based; conditions: filed as agonist
[23] = biological target: T1, Stimulator of interferon genes protein (Mus musculus); assay: Activation of STING in mouse RAW264.7 cells assessed as increase in IRF3 phosphorylation at 10 to 100 uM incubated for 4 hrs by Western blot analysis; type: cell-based; conditions: dose 10-100 µM
[24] = biological target: T2, Stimulator of interferon genes protein; assay: Activation of STING signalling pathway in human PBMC cells assessed as increase in IRF3 phosphorylation at 10 uM measured after 1 hr by Western blot analysis; type: cell-based; conditions: filed as agonist
[25] = biological target: T2, Stimulator of interferon genes protein; assay: Activation of STING signalling pathway in human PBMC cells assessed as increase in TBK1 phosphorylation at 10 uM measured after 1 hr by Western blot analysis; type: cell-based; conditions: filed as agonist
[26] = biological target: T2, Stimulator of interferon genes protein; assay: Activation of STING signalling pathway in human PBMC cells assessed as increase in IFN-beta level incubated for 4 hrs by ELISA method; type: cell-based
[27] = biological target: T1, Stimulator of interferon genes protein (Mus musculus); assay: Activation of STING in mouse RAW264.7 cells assessed as increase in IFN-beta expression at 10 to 100 uM incubated for 24 hrs by qRT-PCR analysis; type: cell-based; conditions: dose 10-100 µM
[28] = biological target: T2, Stimulator of interferon genes protein; assay: Activation of STING signaling pathway in human PBMC cells assessed as increase in IFN-beta mRNA level at 0.1 to 1 uM measured after 4 hrs by qRT-PCR analysis; type: cell-based; conditions: filed as agonist, dose 0.1-1 µM
[29] = biological target: T2, Stimulator of interferon genes protein; assay: Activation of STING signalling pathway in human PBMC cells assessed as increase in STING phosphorylation at 10 uM measured after 1 hr by Western blot analysis; type: cell-based; conditions: filed as agonist
[30] = biological target: T2, Stimulator of interferon genes protein; assay: Activation of STING signalling pathway in human PBMC cells assessed as increase in STING phosphorylation at 55.68 uM measured after 1 hr by Western blot analysis; type: cell-based
[31] = biological target: T2, Stimulator of interferon genes protein; assay: Activation of STING signalling pathway in human PBMC cells assessed as increase in IL-6 level incubated for 4 hrs by ELISA method; type: cell-based
[32] = biological target: T2, Stimulator of interferon genes protein; assay: Activation of STING signalling pathway in human wild type THP-1 cells assessed as increase in IRF3 phosphorylation at 10 uM measured after 1 hr by Western blot analysis; type: cell-based; conditions: filed as agonist
[33] = biological target: T3, Stimulator of interferon genes protein (Mus musculus, UniProt Q3TBT3); assay: Agonist activity at STING in mouse RAW-Lucia ISG cells by luciferase gene reporter assay; type: cell-based
T3 sequence (Q3TBT3 whole entry): T1 sequence (whole entry)

[34] = biological target: T2, Stimulator of interferon genes protein; assay: Activation of STING signaling pathway in human PBMC cells assessed as increase in CXCL10 mRNA level at 0.1 to 1 uM measured after 4 hrs by qRT-PCR analysis; type: cell-based; conditions: filed as agonist, dose 0.1-1 µM

T2 sequence (Q86WV6 whole entry): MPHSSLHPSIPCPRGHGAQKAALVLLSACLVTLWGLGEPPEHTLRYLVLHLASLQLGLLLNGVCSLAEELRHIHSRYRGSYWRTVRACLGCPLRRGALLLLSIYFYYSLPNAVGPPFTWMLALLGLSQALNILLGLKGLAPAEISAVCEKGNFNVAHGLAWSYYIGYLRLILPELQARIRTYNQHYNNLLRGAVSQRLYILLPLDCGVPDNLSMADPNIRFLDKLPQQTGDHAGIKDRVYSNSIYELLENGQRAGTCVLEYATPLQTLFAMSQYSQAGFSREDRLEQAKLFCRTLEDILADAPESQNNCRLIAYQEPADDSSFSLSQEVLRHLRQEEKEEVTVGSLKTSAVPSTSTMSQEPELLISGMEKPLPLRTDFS

CCn1nc(C)cc1C(=O)Nc1nc2cc(C(N)=O)cc(OCCCOC)c2n1CCCNC(=O)OCc1ccccc1
remaining at 1 h [1]: 36.4%

CCn1nc(C)cc1C(=O)Nc1nc2cc(C(N)=O)cc(OC)c2n1NCCCC(=O)NCc1ccc(F)cc1
Activity [2]: inactive | Activity [3]: inactive | Activity [4]: Active | EC50 [5]: 5.5 µM | Activity ([5]; filed as agonist): Dose-Dependent Effect | Activity [6]: Dose-Dependent Effect | Activity [7]: Active | Activity [8]: Active | EC50 [9]: 1.58 µM | Activity [10]: Active | Activity [11]: Dose-Dependent Effect | EC50 [12]: 3.2 µM | Activity ([12]; filed as agonist): Dose-Dependent Effect | remaining at 1 h [13]: 78.7% | IC50 (THP1-Dual): > 100 µM | Activity [14]: Active | EC50 [15]: 4.74 µM | Activity ([15]; filed as agonist): Dose-Dependent Effect | remaining at 2 h [16]: 60.5% | EC50 [17]: 0.12 µM | Activity ([17]; filed as agonist, dose 0.046-0.412 µM): Dose-Dependent Effect | Activity [18]: Dose-Dependent Effect | EC50 [19]: > 100 µM | IC50 [20]: > 100 µM | Activity [21]: inactive | Activity [22]: Active | Activity [23]: inactive | Activity [24]: Active | Activity [25]: Active | EC50 [26]: 0.27 µM | Activity ([26]; filed as agonist, dose 0.137-1.235 µM): Dose-Dependent Effect | Activity [27]: inactive | Activity [28]: Active | Activity [29]: Active | Activity [30]: inactive | EC50 [31]: 0.03 µM | Activity ([31]; filed as agonist, dose 0.006-0.16 µM): Dose-Dependent Effect | Activity [32]: Active | EC50 [33]: > 100 µM | Activity [34]: Active

CCn1nc(C)cc1C(=O)Nc1nc2cc(C(N)=O)cc(OC)c2n1C/C=C/CNC(=O)c1ccc2ncccc2c1
EC50 [9]: > 100 µM | IC50 (THP1-Dual): > 100 µM | EC50 [19]: > 100 µM | IC50 [20]: > 100 µM

CCn1nc(C)cc1C(=O)Nc1nc2cc(C(N)=O)cc(OCC3COC3)c2n1NCCCNC(=O)c1ccc2ccccc2c1
EC50 [9]: 39.4 µM | IC50 (THP1-Dual): 11.3 µM | EC50 [19]: > 100 µM | IC50 [20]: 18.2 µM

CCn1nc(C)cc1C(=O)Nc1nc2cc(C(N)=O)cc(OC)c2n1CCCC(=O)NCc1ccccc1
EC50 [9]: 4.13 µM | IC50 (THP1-Dual): > 100 µM | EC50 [19]: > 100 µM | IC50 [20]: > 100 µM

CCn1nc(C)cc1C(=O)Nc1nc2cc(C(N)=O)cc(OCC3CC3)c2n1NCCCC(=O)NCc1ccc(F)cc1
EC50 [9]: 1.42 µM | IC50 (THP1-Dual): > 100 µM | EC50 [19]: > 100 µM | IC50 [20]: > 100 µM

CCn1nc(C)cc1C(=O)Nc1nc2cc(C(N)=O)cc(OC)c2n1NCCCC(=O)NCc1ccc(Oc2ccccc2)cc1
EC50 [9]: 28.8 µM | IC50 (THP1-Dual): > 100 µM | EC50 [19]: > 100 µM | IC50 [20]: > 100 µM

CCn1nc(C)cc1C(=O)Nc1nc2cc(C(N)=O)cc(OC)c2n1C/C=C/CNC(=O)c1ccc2ccccc2c1
EC50 [9]: > 100 µM | IC50 (THP1-Dual): > 100 µM | EC50 [19]: > 100 µM | IC50 [20]: > 100 µM

CCn1nc(C)cc1C(=O)Nc1nc2cc(C(N)=O)cc(OCCCOC)c2n1NCCCNC(=O)c1ccc2ccccc2c1
EC50 [9]: 0.53 µM | IC50 (THP1-Dual): 10.6 µM | EC50 [19]: > 100 µM | IC50 [20]: 14.8 µM

CCn1nc(C)cc1C(=O)Nc1nc2cc(C(N)=O)cc(OC)c2n1C/C=C/CNC(=O)C1CCCCC1
EC50 [9]: > 100 µM | IC50 (THP1-Dual): > 100 µM | EC50 [19]: > 100 µM | IC50 [20]: > 100 µM

CCn1nc(C)cc1C(=O)Nc1nc2cc(C(N)=O)cc(OCCCOC)c2n1NCCCC(=O)NCc1ccc(F)cc1
EC50 [9]: 2.96 µM | IC50 (THP1-Dual): > 100 µM | EC50 [19]: > 100 µM | IC50 [20]: > 100 µM
